Data reported in US9139577B2, “Sulfoximine substituted quinazolines for pharmaceutical compositions” (Boehringer Ingelheim International GmbH, priority 2013, dated 2015).

Target: MNK2a (Homo sapiens (Human), UniProt Q9HBH9)
Test: MNK2a in vitro kinase assay (Assay 2), ADP-Glo
Format: biochemical
Conditions: read-out: MNK2 IC50
Experimental: B. MNK2a In vitro Kinase Assay (Assay 2)
ASSAY SETUP: The inhibition of kinase activity of MNK2a was assessed using pre-activated GST-MNK2a. The white, 384-well OptiPlate F plates were purchased from PerkinElmer. The ADP-Glo Kinase Assay (including ultra pure ATP) was purchased from Promega (V9103). Activated MNK2a was obtained as described in WO2011/104340. […] ID No. 5 of WO 2011/104340 by the C-terminal —CONH2 group, was purchased from Thermo Fisher Scientific. All other materials were of highest grade commercially available. Compounds are tested in either serial dilutions or single dose concentrations. The compound stock solutions are 10 mM in 100% DMSO The serial compound dilutions are prepared in 100% DMSO followed by 1:27.3 intermediate dilution in assay buffer. The final DMSO concentration in assay will be <3%. In the 384-well plates 3 μl of test compound from the intermediate dilution is mixed with 4 μl of the activated MNK2 enzyme (final concentration of 10 nM) and 4 μl of the peptide (final concentration of 25 μM)/ultra pure ATP (final concentration of 20 μM), all dissolved in assay buffer. This step is followed by an incubation time of 90 min, then 10 μl of ADP Glo reagent are added, followed by 40 min of incubation. Then 20 μl of kinase detection reagent are admixed. The plates are sealed and after an incubation period of 30 min, the luminescence signal is measured in an Envision reader to determine the amount of produced ADP. All incubation steps are performed at room temperature. The assay buffer consists of 20 mM HEPES, 2 mM DTT, 0.01% BSA, 20 mM MgCl2 and 0.1% Pluronic F-127.
The luminescent signal generated is proportional to the ADP concentration produced and is correlated with activated MNK2 activity. The analysis of the data is performed by the calculation of the percentage of ATP consumption of activated MNK2 in the presence of the test compound compared to the consumption of ATP in the presence of activated MNK2 without compound. (RLU(sample)−RLU(low control))*100/(RLU(high value)−RLU(low control)) [RLU=relative luminescence units]
[…] values based on dose response curves are calculated with the AssayExplorer software.

Chain of MNK2a (Q9HBH9 whole entry): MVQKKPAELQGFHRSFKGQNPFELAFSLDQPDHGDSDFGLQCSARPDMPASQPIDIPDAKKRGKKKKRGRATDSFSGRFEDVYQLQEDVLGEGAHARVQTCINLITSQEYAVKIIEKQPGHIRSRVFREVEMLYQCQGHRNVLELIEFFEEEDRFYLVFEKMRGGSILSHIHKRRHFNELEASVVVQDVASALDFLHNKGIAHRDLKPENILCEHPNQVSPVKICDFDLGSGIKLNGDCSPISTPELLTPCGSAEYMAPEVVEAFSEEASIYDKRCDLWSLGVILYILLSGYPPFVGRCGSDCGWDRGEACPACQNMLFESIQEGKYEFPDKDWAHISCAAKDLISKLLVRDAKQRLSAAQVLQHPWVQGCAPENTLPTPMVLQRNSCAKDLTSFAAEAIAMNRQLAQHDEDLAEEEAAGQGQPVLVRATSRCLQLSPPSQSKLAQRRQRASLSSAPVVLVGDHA

Compound	IC50
C[C@H](C#N)NC(=O)[C@@H](C)Oc1cc(F)ccc1Nc1ncnc2cc(N=S3(=O)CCC3)cc(Cl)c12 [Example 4.112]	2 nM
Cc1cc(N=S2(=O)CCC2)cc2ncnc(Nc3ccc(F)cc3O[C@H](C)C(=O)NC(C)C)c12 [Example 4.081]	2 nM
Cc1cc(N=S2(=O)CC[C@@H](N)C2)cc2ncnc(Nc3ccc(F)cc3O[C@H](C)C(=O)NCC(F)(F)F)c12 (stereo partly drawn) [Example 2.020]	3 nM
C[C@@H](Oc1cc(F)ccc1Nc1ncnc2cc(N=S3(=O)CCC3)cc(F)c12)C(=O)NC(CF)CF [Example 4.128]	2 nM
Cc1cc(N=S(C)(C)=O)cc2ncnc(Nc3ccc(Cl)cc3O[C@H](C)C(=O)NCC(F)(F)F)c12 [Example 4.092]	2 nM
Cc1cc(N=S2(=O)CCC2)cc2ncnc(Nc3cccnc3O[C@H](C)C(=O)NCC(F)(F)F)c12 [Example 2.039]	3 nM
COc1cc(N=S(C)(C)=O)cc2ncnc(Nc3cccnc3O[C@H](C)C(=O)NCC(F)(F)F)c12 [Example 6.004]	3 nM
C[C@@H](C#N)NC(=O)[C@@H](C)Oc1cc(Cl)ccc1Nc1ncnc2cc(N=S3(=O)CCCC3)cc(F)c12 [Example 4.093]	1 nM
C[C@@H](Oc1cc(F)ccc1Nc1ncnc2cc(N=S3(=O)CC(C)(C)C3)cc(F)c12)C(=O)NCC#N [Example 2.026]	1 nM
COc1cc(N=S(C)(=O)C2CC2)cc2ncnc(Nc3ccc(F)cc3O[C@H](C)C(=O)NCC(F)(F)F)c12 (stereo partly drawn) [Example 2.030]	4 nM
Cc1cc(N=S2(=O)CCC2)cc2ncnc(Nc3ccc(F)cc3O[C@H](C)C(=O)NC34CC(C3)C4)c12 [Example 4.082]	2 nM
C[C@@H](Oc1cc(F)ccc1Nc1ncnc2cc(N=S(C)(C)=O)cc(Cl)c12)C(=O)NCCF [Example 4.078]	2 nM
Cc1cc(N=S(C)(C)=O)cc2ncnc(Nc3ccc(F)cc3O[C@H](C)C(=O)N3CCC3)c12 [Example 4.049]	19 nM
Cc1cc(N=S(C)(C)=O)cc2ncnc(Nc3ccc(F)cc3O[C@H](C)C(=O)N3CCCC3)c12 [Example 4.016]	20 nM
C[C@@H](Oc1cc(F)ccc1Nc1ncnc2cc(N=S3(=O)CCC3)cc(F)c12)C(=O)NCC(F)F [Example 4.123]	3 nM
Cc1cc(N=S(C)(C)=O)cc2ncnc(Nc3ccc(F)cc3O[C@H](C)C(=O)NCC(F)(F)C(F)(F)F)c12 [Example 4.119]	2 nM
COc1cc(N=S2(=O)CCC2)cc2ncnc(Nc3ccc(F)cc3O[C@H](C)C(=O)NCC(F)F)c12 [Example 6.002]	2 nM
Cc1cc(N=S(C)(C)=O)cc2ncnc(Nc3ccc(F)cc3OC(C)Cn3ccnc3)c12 (stereo not drawn) [Example 3.004]	17 nM
Cc1cc(N=S(C)(C)=O)cc2ncnc(Nc3ccc(F)cc3O[C@H](C)C(=O)N[C@@H](C)C(F)(F)F)c12 [Example 4.127]	2 nM
Cc1cc(N=S2(=O)CCC(O)C2)cc2ncnc(Nc3ccc(F)cc3O[C@H](C)C(=O)NCC(F)(F)F)c12 (stereo partly drawn) [Example 2.023]	2 nM
Cc1cc(N=S(C)(C)=O)cc2ncnc(Nc3ccc(F)cc3O[C@H](CO)C(=O)NCC(F)(F)F)c12 [Example 7.011]	3 nM
Cc1cc(N=S2(=O)CCC2)cc2ncnc(Nc3ccc(F)cc3O[C@H](C)C(=O)NC(C)C#N)c12 (stereo partly drawn) [Example 4.132]	1 nM
COc1cc(N=S2(=O)CCC2)cc2ncnc(Nc3ccc(F)cc3O[C@H](C)C(=O)NCC#N)c12 [Example 4.115]	2 nM
Cc1cc(N=S(C)(C)=O)cc2ncnc(Nc3ccc(F)cc3O[C@@H](C)CN)c12 [Example 3.024]	16 nM
Cc1cc(N=S(C)(C)=O)cc2ncnc(Nc3ccc(F)cc3O[C@H](C)C(=O)N(CC(F)F)CC(F)F)c12 [Example 3.053]	2 nM
Cc1cc(N=S(C)(C)=O)cc2ncnc(Nc3ccc(F)cc3O[C@H](CF)C(=O)NCC(F)(F)F)c12 [Example 7.013]	4 nM
Cc1cc(N=S2(=O)CCC2)cc2ncnc(Nc3ccc(Cl)nc3O[C@H](C)C(=O)N[C@@H](C)C(F)(F)F)c12 [Example 4.094]	1 nM
